Measurements taken from the CombiSolv-Exp solvation set (Vermeire and Green 2021).

Assay: solvent given as SMILES

For C=CC(=C)C, the “solvation free energy, 298 K” value (in BrC(Br)C(Br)Br) was -2.83 kcal/mol, the “solvation free energy, 298 K” value (in Brc1cccc2ccccc12) was -2.82 kcal/mol and the “solvation free energy, 298 K” value (in C1=Cc2ccccc2C1) was -3.1 kcal/mol. For the same molecule, the “solvation free energy, 298 K” value (in CC1COC(=O)O1) was -2.45 kcal/mol, the “solvation free energy, 298 K” value (in CC(=O)N(C)C) was -2.89 kcal/mol and the “solvation free energy, 298 K” value (in CC(=O)OCc1ccccc1) was -2.93 kcal/mol. The “solvation free energy, 298 K” value (in CC(=O)c1ccccc1) was -2.93 kcal/mol, the “solvation free energy, 298 K” value (in CC(C)CC(C)(C)C) was -3.16 kcal/mol and the “solvation free energy, 298 K” value (in CCC(C)=O) was -3.27 kcal/mol. For the same molecule, the “solvation free energy, 298 K” value (in CCCCC#N) was -3.06 kcal/mol, the “solvation free energy, 298 K” value (in CCCCCC#N) was -3.11 kcal/mol and the “solvation free energy, 298 K” value (in CCCCCCC) was -3.22 kcal/mol. For the same molecule, the “solvation free energy, 298 K” value (in CCCCCCCC) was -3.18 kcal/mol, the “solvation free energy, 298 K” value (in CCCCCCCCO) was -2.81 kcal/mol and the “solvation free energy, 298 K” value (in CCCCO) was -2.89 kcal/mol. For the same molecule, the “solvation free energy, 298 K” value (in CCNC(C)=O) was -2.81 kcal/mol, the “solvation free energy, 298 K” value (in CCOC(C)=O) was -3.29 kcal/mol and the “solvation free energy, 298 K” value (in CN1CCCC1=O) was -2.89 kcal/mol. For the same molecule, the “solvation free energy, 298 K” value (in CN(C)C=O) was -2.88 kcal/mol, the “solvation free energy, 298 K” value (in CN(C)P(=O)(N(C)C)N(C)C) was -2.89 kcal/mol and the “solvation free energy, 298 K” value (in CNC(C)=O) was -2.74 kcal/mol. The “solvation free energy, 298 K” value (in CNC=O) was -2.44 kcal/mol, the “solvation free energy, 298 K” value (in CS(C)=O) was -2.38 kcal/mol and the “solvation free energy, 298 K” value (in Cc1cccc2ccccc12) was -2.94 kcal/mol. The “solvation free energy, 298 K” value (in Cc1cccc(O)c1) was -2.72 kcal/mol, the “solvation free energy, 298 K” value (in ClC(Cl)(Cl)Cl) was -3.49 kcal/mol and the “solvation free energy, 298 K” value (in ClC(Cl)C(Cl)Cl) was -3.21 kcal/mol. For the same molecule, the “solvation free energy, 298 K” value (in ClCCCl) was -3.3 kcal/mol, the “solvation free energy, 298 K” value (in Clc1cccc2ccccc12) was -2.81 kcal/mol and the “solvation free energy, 298 K” value (in N#CCCCC#N) was -2.06 kcal/mol. For the same molecule, the “solvation free energy, 298 K” value (in N#CCCCCC#N) was -2.35 kcal/mol, the “solvation free energy, 298 K” value (in N#CCc1ccccc1) was -2.7 kcal/mol and the “solvation free energy, 298 K” value (in N#Cc1ccccc1) was -3 kcal/mol. The “solvation free energy, 298 K” value (in NCc1ccccc1) was -2.85 kcal/mol, the “solvation free energy, 298 K” value (in Nc1ccccc1) was -2.56 kcal/mol and the “solvation free energy, 298 K” value (in O) was 0.68 kcal/mol. The “solvation free energy, 298 K” value (in O=C1CCCCC1) was -3.22 kcal/mol, the “solvation free energy, 298 K” value (in O=C(O)C(Cl)Cl) was -2.77 kcal/mol and the “solvation free energy, 298 K” value (in OCCO) was -1.12 kcal/mol. For the same molecule, the “solvation free energy, 298 K” value (in OCc1ccccc1) was -2.56 kcal/mol and the “solvation free energy, 298 K” value (in c1ccc2ncccc2c1) was -2.82 kcal/mol.
For O=c1cc(Cl)[nH]c(=O)[nH]1, the “solvation free energy, 298 K” value (in O) was -15.8 kcal/mol.
With CC(F)(F)Cl the “solvation free energy, 298 K” value (in CCCCCCCC(=O)OCC(COC(=O)CCCCCCC)OC(=O)CCCCCCC) was -1.84 kcal/mol, the “solvation free energy, 298 K” value (in CCCCCCCCC) was -1.74 kcal/mol and the “solvation free energy, 298 K” value (in CCCCCCCCO) was -1.62 kcal/mol. For the same molecule, the “solvation free energy, 298 K” value (in CN1CCCC1=O) was -2.13 kcal/mol, the “solvation free energy, 298 K” value (in CN(C)C=O) was -2.09 kcal/mol and the “solvation free energy, 298 K” value (in O) was 0.61 kcal/mol.
With OCc1ccccc1 the “solvation free energy, 298 K” value (in CCCCCCCCCCCCCCCC) was -5.74 kcal/mol, the “solvation free energy, 298 K” value (in N#Cc1ccccc1) was -8 kcal/mol and the “solvation free energy, 298 K” value (in O) was -6.79 kcal/mol.
For CC(C(=O)O)c1ccc(N2CC=CC2)c(Cl)c1 (stereo not given), the “solvation free energy, 298 K” value (in O) was -11.3 kcal/mol.
In the case of CCCN(CCC)N=O, the “solvation free energy, 298 K” value (in CC(C)CC(C)(C)C) is reported as -6.56 kcal/mol.
For Nc1ccc(Cc2ccc(N)cc2)cc1, the “solvation free energy, 298 K” value (in O) was -16.3 kcal/mol.
With CC(C)c1ccc2c(c1)CCC1C(C)(C)CCCC21C (stereo not given) the “solvation free energy, 298 K” value (in O) was -0.37 kcal/mol.
In the case of Clc1ccc(-c2cc(Cl)c(Cl)c(Cl)c2)cc1Cl, the “solvation free energy, 298 K” value (in O) is reported as -3.79 kcal/mol.
For Clc1cc(-c2ccccc2)c(Cl)c(Cl)c1Cl, the “solvation free energy, 298 K” value (in CCCCCCCCO) was -11.7 kcal/mol and the “solvation free energy, 298 K” value (in O) was -3.29 kcal/mol.
In the case of FC(F)(F)c1ccccc1C(F)(F)F, the “solvation free energy, 298 K” value (in O) is reported as 1.07 kcal/mol.
For Clc1ccc(C(c2ccccc2Cl)C(Cl)(Cl)Cl)cc1 (stereo not given), the “solvation free energy, 298 K” value (in CCCCCCCCC=CCCCCCCCC(=O)OCC(COC(=O)CCCCCCCC=CCCCCCCCC)OC(=O)CCCCCCCC=CCCCCCCCC) was -13.8 kcal/mol and the “solvation free energy, 298 K” value (in O) was -5.31 kcal/mol.
With CCC(O)(CC)CC the “solvation free energy, 298 K” value (in CCCCCCCC) was -5.42 kcal/mol and the “solvation free energy, 298 K” value (in CCCCCCCCCC) was -5.34 kcal/mol.
With O=Cc1ccco1 the “solvation free energy, 298 K” value (in CCCCCCCC) was -4.27 kcal/mol, the “solvation free energy, 298 K” value (in CCCCCCCCCC) was -4.51 kcal/mol and the “solvation free energy, 298 K” value (in CCOC(C)=O) was -6.3 kcal/mol. The “solvation free energy, 298 K” value (in O) was -5.28 kcal/mol.
With COC(C)(C)C the “solvation free energy, 298 K” value (in CC(=O)N(C)C) was -3.29 kcal/mol, the “solvation free energy, 298 K” value (in CC(C)(C)O) was -3.81 kcal/mol and the “solvation free energy, 298 K” value (in CC(C)CC(C)(C)C) was -3.58 kcal/mol. For the same molecule, the “solvation free energy, 298 K” value (in CC(C)CCl) was -3.89 kcal/mol, the “solvation free energy, 298 K” value (in CCC(C)Cl) was -3.88 kcal/mol and the “solvation free energy, 298 K” value (in CCCCCCC) was -3.54 kcal/mol. The “solvation free energy, 298 K” value (in CCCCCCCC) was -3.51 kcal/mol, the “solvation free energy, 298 K” value (in CCCCCCCCCC) was -3.48 kcal/mol and the “solvation free energy, 298 K” value (in CCCCCCCCCCCCCCCC) was -3.22 kcal/mol. For the same molecule, the “solvation free energy, 298 K” value (in CCCCCCCCCCO) was -3.73 kcal/mol, the “solvation free energy, 298 K” value (in CCCCCCCCO) was -3.52 kcal/mol and the “solvation free energy, 298 K” value (in CCCCCCO) was -3.55 kcal/mol. For the same molecule, the “solvation free energy, 298 K” value (in CCCCCl) was -3.91 kcal/mol, the “solvation free energy, 298 K” value (in CCCCN(C=O)CCCC) was -3.34 kcal/mol and the “solvation free energy, 298 K” value (in CCN1CCCC1=O) was -3.21 kcal/mol. The “solvation free energy, 298 K” value (in CCN(CC)C(C)=O) was -3.4 kcal/mol, the “solvation free energy, 298 K” value (in CCNC(C)=O) was -3.26 kcal/mol and the “solvation free energy, 298 K” value (in CCNC=O) was -3.21 kcal/mol. The “solvation free energy, 298 K” value (in CN1CCCCC1=O) was -3.22 kcal/mol, the “solvation free energy, 298 K” value (in CN(C)C=O) was -3.18 kcal/mol and the “solvation free energy, 298 K” value (in CNC(C)=O) was -3.12 kcal/mol. For the same molecule, the “solvation free energy, 298 K” value (in CNC=O) was -3.08 kcal/mol, the “solvation free energy, 298 K” value (in CO) was -3.78 kcal/mol and the “solvation free energy, 298 K” value (in COC(=O)OC) was -3.52 kcal/mol. The “solvation free energy, 298 K” value (in ClC(Cl)(Cl)Cl) was -3.94 kcal/mol, the “solvation free energy, 298 K” value (in ClC(Cl)Cl) was -4.88 kcal/mol and the “solvation free energy, 298 K” value (in O) was -2.02 kcal/mol. The “solvation free energy, 298 K” value (in [2H]O[2H]) was -2.15 kcal/mol.
